Source: the supplement of paper PMC10307832

Assays:
Assay in all cases: relative viability (nuclei count vs DMSO), 5 days (fraction); higher = more cells survive
[1] = compound: C1CSC2=C(C(=O)N1)SC3=C2C=C(C=C3)O [kb NB 142-70] + Nc1nc2[nH]cc(CCc3ccc(C(=O)N[C@@H](CCC(=O)O)C(=O)O)cc3)c2c(=O)[nH]1 [Pemetrexed] (partner 0.2 µM)
Summary of the method: (§1)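 Cells from lung cancer lines were seeded into 1536-well plates and, one day later, dosed by pin tool. Treatments were either a single drug or a fixed dose of an anchor drug with five library-drug doses (not always all listed) in √10 steps. After 5 days, nuclei were stained in a one-step fixation (final 0.05% Triton X-100, 1% formaldehyde, 1 ug/ml Hoechst) and counted on 4× images, and relative viability is the treated-to-vehicle nuclei ratio, as the median of duplicate plates.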

kb NB 142-70 + Olaparib = compound: C1CSC2=C(C(=O)N1)SC3=C2C=C(C=C3)O [kb NB 142-70] + O=C(c1cc(Cc2n[nH]c(=O)c3ccccc23)ccc1F)N1CCN(C(=O)C2CC2)CC1 [Olaparib] (partner 8 µM)
Summary of the method: as §1

[2] = compound: NCC(=O)Nc1ccc(-n2nc(C(F)(F)F)cc2-c2ccc3c(ccc4ccccc43)c2)cc1 + O=C(CCCCCCC(=O)Nc1ccccc1)NO [Vorinostat] (partner 1 µM)
Summary of the method: as §1

[3] = compound: NCC(=O)Nc1ccc(-n2nc(C(F)(F)F)cc2-c2ccc3c(ccc4ccccc43)c2)cc1 + CS(=O)(=O)N1CCN(Cc2cc3nc(-c4cccc5[nH]ncc45)nc(N4CCOCC4)c3s2)CC1 [Pictilisib] (partner 1 µM)
Summary of the method: as §1

Cell Line	relative viability ([1]; first compound 0.1 µM)	relative viability ([1]; first compound 1 µM)	relative viability ([1]; first compound 3.162 µM)	relative viability (kb NB 142-70 + Olaparib; first compound 0.1 µM)	relative viability (kb NB 142-70 + Olaparib; first compound 1 µM)	relative viability (kb NB 142-70 + Olaparib; first compound 3.162 µM)	relative viability ([2]; first compound 0.02 µM)	relative viability ([2]; first compound 0.06325 µM)	relative viability ([2]; first compound 0.2 µM)	relative viability ([2]; first compound 0.6325 µM)	relative viability ([2]; first compound 2 µM)	relative viability ([3]; first compound 0.02 µM)	relative viability ([3]; first compound 0.06325 µM)	relative viability ([3]; first compound 0.2 µM)	relative viability ([3]; first compound 0.6325 µM)	relative viability ([3]; first compound 2 µM)
NCI-H1993	0.562	0.597	0.554	1.04	0.911	1.04	0.798	0.952	0.656	0.969	0.862	0.759	0.773	0.738	0.838	0.861
NCI-H2009	1.05	1.09	0.977	0.721	0.724	0.611	0.698	0.741	0.792	0.805	0.766	0.734	0.906	0.819	0.86	0.967
NCI-H2023	0.253	0.283	0.221	0.51	0.504	0.312	0.619	0.854	0.58	0.653	0.621	0.229	0.232	0.201	0.207	0.242
NCI-H2085	0.866	0.947	0.792	0.742	0.727	0.487	0.703	0.824	0.728	0.877	0.849	0.483	0.443	0.436	0.42	0.469
NCI-H2087	0.569	0.681	0.527	0.506	0.589	0.411	0.752	0.618	0.809	0.649	0.668	0.77	0.709	0.723	0.801	0.848
NCI-H2126	0.666	0.702	0.762	0.928	0.899	0.816	0.78	0.858	0.768	0.756	0.773	0.47	0.51	0.45	0.532	0.502
NCI-H2170	0.273	0.296	0.333	0.661	0.596	0.543	0.9	0.926	0.849	0.826	0.823	0.233	0.325	0.319	0.328	0.323
NCI-H2228	0.375	0.376	0.24	0.694	0.587	0.362	0.727	0.599	0.685	0.723	0.663	0.473	0.471	0.355	0.299	0.481
NCI-H2347	0.453	0.449	0.426	0.634	0.632	0.568	0.604	0.688	0.685	0.611	0.673	0.831	0.668	0.706	0.738	0.711
NCI-H2405	1.11	0.995	0.523	0.824	0.895	0.723	1.08	1.11	1.1	1.01	1.16	0.415	0.494	0.499	0.375	0.481
NCI-H3122	0.2	0.21	0.289	0.648	0.714	0.793	1.03	0.997	0.995	0.942	0.797	0.696	0.592	0.532	0.571	0.628
PC-3 [JPC-3]	1.11	1	0.559	1.12	1.25	1.15	0.902	0.854	0.778	1.03	0.822	0.645	0.855	0.739	0.745	0.88
PC-14	0.134	0.148	0.139	0.318	0.265	0.216	0.685	0.62		0.659	0.657	0.606	0.702	0.704	0.67	0.62
RERF-LC-KJ	0.461	0.477	0.417	1.03	1.01	0.675	0.59	0.652	0.609	0.758	0.772	0.568	0.62	0.663	0.66	0.517
SK-LU-1	0.958	0.954	0.412	0.423	0.396	0.271	0.804	0.798	0.91	0.71	0.821	0.651	0.604	0.581	0.479	0.623
SK-MES-1	1	1.11	0.548	0.719	0.484	0.181	1.06	1.07	1.17	1.02	1.23	0.382	0.313	0.334	0.355	0.42
SW 1573	0.81	0.744	0.36	0.421	0.305	0.177	0.647	0.749	0.831	0.703	0.661	0.513	0.545	0.493	0.514	0.486
